# Assay results as given in patent US20190000829A1, “THERAPEUTIC AGENT FOR BILIARY TRACT CANCER” (Eisai R&D Management Co., Ltd., priority 2015, published 2019).
# Experiments:
# [1] = test system: human carcinoma of the ampulla of Vater cell line (SNU-869 cell line); test: Tumor growth-inhibitory effect in model subcutaneously transplanted with human carcinoma of the ampulla of Vater cell line (SNU-869); type: in vivo; settings: SNU-869 subcutaneous xenograft, nude mice; mesylate of compound A 1, 3, 10, 30, 100 mg/kg orally once a day for 14 days
# Procedure: (§1) An antitumor effect produced by administration of compound A was evaluated with six nude mice in each group (CAnN.Cg-Foxn1^nu/CrlCrlj, female, Charles River Laboratories Japan, Inc.). The human-derived human carcinoma of the ampulla of Vater SNU-869 cell lines (Creative Bioarray) were suspended in RPMI1640 medium (Wako Pure Chemical Industries, Ltd., supplemented with 25 mM HEPES and 10% FBS) at a concentration of 2×10^8 cells/mL and were mixed well. The cell suspension was further mixed with an equal amount of Matrigel basement membrane matrix (Corning Incorporated) to prepare a cell suspension at 1×10^8 cells/mL, and aliquots of 0.1 mL were subcutaneously transplanted into the right flank of each mouse. Seven days after transplantation, the longest diameter and the short axis of the tumors were measured by an electronic digital caliper (ABS Digimatic Caliper, Mitutoyo Corporation). The mice were divided into groups so that the average of tumor volumes of each group became approximately equal. In this regard, the tumor volume was calculated according to the following formula.
# (§2) Tumor volume (mm^3)=longest diameter (mm)×short axis (mm)×short axis (mm)/2 […]
# (§3) The tumor volume was measured on the day when the administration was started (Day 1), Day 4, Day 8, and Day 11, and the day following the last day of administration (Day 15). […]
# [2] = test system: human cholangiocarcinoma cell line (OZ cell line); test: Tumor growth-inhibitory effect in model subcutaneously transplanted with human cholangiocarcinoma cell line (OZ); type: in vivo; settings: OZ subcutaneous xenograft, nude mice; mesylate of compound A 1, 3, 10, 30, 100 mg/kg orally once a day for 14 days
# Procedure: as §1, with “five” for “six”, “cholangiocarcinoma OZ” for “human carcinoma of the ampulla of Vater SNU-869”, “(JCRB Cell Bank)” for “(Creative Bioarray)”, “Williams'E (Sigma-Aldrich Corporation,” for “RPMI1640 medium (Wako Pure Chemical Industries, Ltd.,”, “2 mmol/L L-glutamine” for “25 mM HEPES”, “Thirteen” for “Seven”
# as §2
# The tumor volume was measured on the day when the administration was started (Day 1), Day 5, Day 8, and Day 12, and the clay following the last day of administration (Day 15). […]
# [3] = test system: unresectable biliary tract cancer; test: Multicenter, unblinded, phase II clinical trial in patients with unresectable biliary tract cancer after combination chemotherapy involving gemcitabine (interim analysis); type: in vivo, human
# Excerpt: This clinical trial was a multicenter, single-group, unblinded clinical trial for patients with a prior treatment history who had received one regimen using two-drug combination chemotherapy involving gemcitabine (two-drug combination chemotherapy using gemcitabine and cisplatin, or gemcitabine and another platinum-based drug or a fluorinated pyrimidine drug) for their unresectable biliary tract cancers.
# This clinical trial was composed of three periods, which were a pretreatment period, an administration period, and a follow-up period. During the pretreatment period, screening was performed within 21 days. The administration period was composed of administration of mesylate of compound A as an investigational drug in each cycle and tumor assessment performed every 6 to 8 weeks. The follow-up period was started immediately after the day when administration was discontinued and was continued while the subject was alive until withdrawal of consent by the subject or completion of the clinical trial.
# The investigational drug, mesylate of compound A, was administered orally once a day in a cycle of 28 days at a dose of 24 mg in terms of compound A in free form, and administration was continued until disease progression, an unacceptable adverse event, withdrawal of consent by the subject, or the like occurred.
# The primary objective of the clinical trial was to determine an objective response rate (ORR) of the investigational drug for patients with an unresectable biliary tract cancer after combination chemotherapy involving gemcitabine.
# The secondary objective of the clinical trial was to determine a progression-free survival (PFS), an overall survival (OS), a disease control rate (DCR), a clinical benefit rate (CBR), adverse events (AEs), and the number of subjects who developed serious adverse events (SAEs), and a blood concentration. In this context, ORR is defined as a rate of subjects with their best overall response (BOR) being complete response (CR) or partial response (PR). […]
# [4] = test system: human extrahepatic cholangiocarcinoma cell line (TFK-1 cell line); test: Tumor growth-inhibitory effect in model subcutaneously transplanted with human extrahepatic cholangiocarcinoma cell line (TFK-1); type: in vivo; settings: TFK-1 subcutaneous xenograft, nude mice; mesylate of compound A 1, 3, 10, 30, 100 mg/kg orally once a day for 14 days
# Procedure: as §1, with “extrahepatic cholangiocarcinoma TFK-1” for “human carcinoma of the ampulla of Vater SNU-869”, “(Riken BioResource Center)” for “(Creative Bioarray)”, “with” for “with 25 mM HEPES and”
# as §2, §3
structure (smiles),measurement,setting,value
"COc1cc2nccc(Oc3ccc(NC(=O)NC4CC4)c(Cl)c3)c2cc1C(N)=O [compound A, 4-[3-chloro-4-(cyclopropylaminocarbonyl)aminophenoxy]-7-methoxy-6-quinolinecarboxamide]",antitumor effect (tumor volume on Day 15 vs control),[1],dose-dependent antitumor effect
same,antitumor effect (tumor volume on Day 15 vs control),[2],dose-dependent antitumor effect
same,"stable disease (SD, 6 weeks or more), percentage of patients","[3]; 17 patients, mesylate of compound A orally once a day, 24 mg in terms of free form, 28-day cycles, 13 patients",76.5%
same,"partial response (PR), percentage of patients","[3]; 17 patients, mesylate of compound A orally once a day, 24 mg in terms of free form, 28-day cycles, one patient",5.9%
same,"tendency for tumor regression, number of patients","[3]; among 13 SD patients, 24 mg orally once a day",8 patients
same,antitumor effect (tumor volume on Day 15 vs control),[4],dose-dependent antitumor effect
